From ChEMBL document CHEMBL1139029, “Synthesis and SAR of substituted tetrahydrocarbazole derivatives as new NPY-1 antagonists” (Bioorg Med Chem Lett, 2006) come the findings set out here.

Broadly, the IC50 is the midpoint of a concentration-inhibition curve. What is called Ki is the equilibrium dissociation constant of an inhibitor or competing ligand from its target. As usually defined, the clearance is the volume of plasma or blood freed of the substance per unit of time. In general, bioavailability refers to the share of a dose that reaches the circulation, judged against a reference dose that is usually intravenous. Low readings indicate little systemic uptake, high ones much systemic uptake. Usually Kp stands for tissue or fluid exposure divided by exposure in the circulation.

The first data set deals with T1, Neuropeptide Y receptor type 1 (Homo sapiens, UniProt P25929).
T1 sequence (P25929 whole entry): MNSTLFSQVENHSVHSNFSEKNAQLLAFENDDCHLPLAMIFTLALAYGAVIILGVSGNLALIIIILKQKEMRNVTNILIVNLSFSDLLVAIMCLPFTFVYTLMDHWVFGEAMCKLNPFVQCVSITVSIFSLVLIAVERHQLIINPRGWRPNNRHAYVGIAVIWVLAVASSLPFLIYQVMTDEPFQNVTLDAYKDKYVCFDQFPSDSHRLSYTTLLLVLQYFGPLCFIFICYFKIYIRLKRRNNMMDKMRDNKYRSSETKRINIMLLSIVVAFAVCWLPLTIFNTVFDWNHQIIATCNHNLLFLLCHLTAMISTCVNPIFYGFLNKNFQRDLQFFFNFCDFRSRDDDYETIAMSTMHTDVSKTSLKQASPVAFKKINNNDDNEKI
In words: Displacement of [125I]PYY from human recombinant NPY1 receptor expressed in CHO cells. It counts as cell-based.
Settings: not given
A general note: In a radioligand displacement assay an active substance lowers the binding of a labelled ligand.
With `CN1CCN(C2C[C@@H](Oc3ccc(Cl)cc3)c3c(c4ccccc4n3CC3CCNCC3)C2=O)CC1=O` (stereo partly specified), the IC50 was 3890 nM.

`O=C1CC[C@@H](Oc2ccc(Cl)cc2)c2c1c1ccccc1n2CCCN1CCCCC1`: the IC50 was 7240 nM. In the case of `CNC1CCC(Cn2c3c(c4ccccc42)C(=O)C(N2CCN(C)CC2)C[C@H]3Oc2ccc(Cl)cc2)CC1` (stereo partly specified), the IC50 is 93.3 nM.

With `CN1CCN(C2C[C@@H](Oc3ccc(Cl)cc3)c3c(c4ccccc4n3C[C@H]3CCN(C)C[C@@H]3F)C2=O)CC1` (stereo partly specified), the IC50 was 437 nM. Regarding `CN1CCN(C2C[C@@H](Oc3ccc(Cl)cc3)c3c(c4ccccc4n3C)C2=O)CC1` (stereo partly specified), the IC50 was 25100 nM.

In the case of `CN1CCN(C2C[C@@H](Oc3ccc(Cl)cc3)c3c(c4ccccc4n3C[C@@H]3CCNC[C@@H]3F)C2=O)CC1` (stereo partly specified), the IC50 is 186 nM. Still for that read-out and setting: then `CC1CCN(C2C[C@@H](Oc3ccc(Cl)cc3)c3c(c4ccccc4n3CCCN3CCCCC3)C2=O)CC1` (stereo partly specified), with 646 nM. As for `CN1CCN(C2C[C@@H](Oc3ccc(Cl)cc3)c3c(c4ccccc4n3C[C@@H]3CCN(C)C[C@@H]3F)C2=O)CC1` (stereo partly specified), the IC50 is 170 nM and the inhibition constant (Ki) is 100 nM. With `CN1CCN(C2C[C@@H](Oc3ccc(Cl)cc3)c3c(c4ccccc4n3C[C@H]3CCNC[C@@H]3F)C2=O)CC1` (stereo partly specified), the IC50 was 240 nM. The same measure, in the same setting: the value for `CC1CCN([C@@H]2C[C@@H](Oc3ccc(Cl)cc3)c3c(c4ccccc4n3CC3CCNCC3)C2=O)CC1` was 97.7 nM; that for `CN1CCN(C2C[C@@H](Oc3ccc(Cl)cc3)c3c(c4ccccc4n3CCCN3CCCCC3)C2=O)CC1` (stereo partly specified) was 1320 nM. `CN1CCN([C@H]2C[C@@H](Oc3ccc(Cl)cc3)c3c(c4ccccc4n3CC3CCNCC3)C2=O)CC1`: the IC50 is 49 nM. Consider `O=C1c2c(n(CCCN3CCCCC3)c3ccccc23)[C@H](Oc2ccc(Cl)cc2)CC1N1CCCCC1` (stereo partly specified), for which the half-inhibitory concentration (IC50) is 3390 nM. On the same count and under the same terms, then `CN1CCC(Cn2c3c(c4ccccc42)C(=O)C(N2CCN(C)CC2)C[C@H]3Oc2ccc(Cl)cc2)CC1` (stereo partly specified), with 33.9 nM; and `O=C1c2c(n(CC3CCNCC3)c3ccccc23)[C@H](Oc2ccc(Cl)cc2)CC1N1CCC(F)(F)CC1` (stereo partly specified), with 1860 nM; and `CC1CCN([C@H]2C[C@@H](Oc3ccc(Cl)cc3)c3c(c4ccccc4n3CC3CCNCC3)C2=O)CC1`, with 22.4 nM. As to `CC1(F)CCN(C2C[C@@H](Oc3ccc(Cl)cc3)c3c(c4ccccc4n3CC3CCNCC3)C2=O)CC1` (stereo partly specified), the IC50 was 100 nM. As to `O=C1c2c(n(CC3CCNCC3)c3ccccc23)[C@H](Oc2ccc(Cl)cc2)CC1N1CCN(CCO)CC1` (stereo partly specified), the IC50 is 37.2 nM. Turning to `O=C1c2c(n(CCCN3CCCCC3)c3ccccc23)[C@H](Oc2ccc(Cl)cc2)CC1N1CCNCC1` (stereo partly specified), the IC50 was 331 nM. Take `CN1CCN([C@@H]2C[C@@H](Oc3ccc(Cl)cc3)c3c(c4ccccc4n3CC3CCNCC3)C2=O)CC1`: the IC50 was 776 nM. Regarding `O=C1c2c(n(CCCN3CCCCC3)c3ccccc23)[C@H](Oc2ccc(Cl)cc2)CC1N1CCOCC1` (stereo partly specified), the IC50 is 15800 nM.

Tested on in a further data set: not listed separately
The data set can be described thus: Plasma clearance in CD rat at 1 mg/kg, iv. In kind it is ADME, organism-based. More on the design: dose 1 mg/kg, route intravenous.
Settings: not given
In the case of `CN1CCC(Cn2c3c(c4ccccc42)C(=O)C(N2CCN(C)CC2)C[C@H]3Oc2ccc(Cl)cc2)CC1` (stereo partly specified), the clearance worked out at 59 mL/min/kg.

Tested on in another data set: not listed separately
The data set can be described thus: Oral bioavailability in CD rat at 5 mg/kg, po. In kind it is ADME, organism-based. To be noted: in vivo.
Take `CN1CCN([C@H]2C[C@@H](Oc3ccc(Cl)cc3)c3c(c4ccccc4n3CC3CCNCC3)C2=O)CC1`: the bioavailability stood at 0%. In the case of `CN1CCC(Cn2c3c(c4ccccc42)C(=O)C(N2CCN(C)CC2)C[C@H]3Oc2ccc(Cl)cc2)CC1` (stereo partly specified), the bioavailability came to 27%.

Tested on in another data set: not listed separately
In words: Ratio of drug level in brain against plasma in CD rat at 1 mg/kg, iv. The following applies: brain and plasma. In kind it is ADME, organism-based. More on the design: dose 1 mg/kg, route intravenous.
For the compound `CN1CCC(Cn2c3c(c4ccccc42)C(=O)C(N2CCN(C)CC2)C[C@H]3Oc2ccc(Cl)cc2)CC1` (stereo partly specified), the Kp came out at 0.8.
